Results: ChEMBL document CHEMBL1201862, “PubChem BioAssay data set” (2004)
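Method: 48-hour compound exposure of cells in 96-well plates, five concentrations, linear interpolation of endpoints. At the GI50, growth is halved.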 Activity calls are given as the source filed them. Cut-off read from the data, not from the text of the source: active = GI50 up to about 1.1 µM and inactive = higher.

What was measured:
Test in all cases: DTP human tumour cell line panel, 48 h
NCI-H226 = test system: NCI-H226
786-0 = test system: 786-0
SF-268 = test system: SF-268
A498 = test system: A498
M14 = test system: M14
HT-29 = test system: HT-29
MCF7 = test system: MCF7
T47D = test system: T47D
OVCAR-4 = test system: OVCAR-4
UACC-257 = test system: UACC-257
NCI-H460 = test system: NCI-H460
Hs-578T = test system: Hs-578T
OVCAR-5 = test system: OVCAR-5
EKVX = test system: EKVX
NCI-H23 = test system: NCI-H23
HL-60 = test system: HL-60
OVCAR-8 = test system: OVCAR-8
SK-OV-3 = test system: SK-OV-3
KM12 = test system: KM12

| SMILES | GI50 (NCI-H226) | GI50 (786-0) | GI50 (SF-268) | GI50 (A498) | GI50 (M14) | GI50 (HT-29) | GI50 (MCF7) | GI50 (T47D) | GI50 (OVCAR-4) | GI50 (UACC-257) | GI50 (NCI-H460) | GI50 (Hs-578T) | GI50 (OVCAR-5) | GI50 (EKVX) | GI50 (NCI-H23) | GI50 (HL-60) | GI50 (OVCAR-8) | GI50 (SK-OV-3) | GI50 (KM12) |
| --- | --- | --- | --- | --- | --- | --- | --- | --- | --- | --- | --- | --- | --- | --- | --- | --- | --- | --- | --- |
| C/C(C=O)=C/[C@@]1(C)O[C@@H](C)[C@@](C)(O)[C@@H]1O | > 100 µM (inactive) | 17 µM (inactive) | 25.2 µM (inactive) | 83.6 µM (inactive) | 32.5 µM (inactive) | > 100 µM (inactive) | 25.6 µM (inactive) | > 100 µM (inactive) | > 100 µM (inactive) | 22.1 µM (inactive) | 22.2 µM (inactive) | 49.5 µM (inactive) | > 100 µM (inactive) | > 100 µM (inactive) | 33.3 µM (inactive) | > 100 µM (inactive) | 18.8 µM (inactive) | > 100 µM (inactive) | 35.4 µM (inactive) |
| COc1cc2oc(-c3ccc4c(c3)OCO4)c(OC)c(=O)c2c(OC)c1OC | > 100 µM (inactive) | 94 µM (inactive) | 27.9 µM (inactive) | 33.7 µM (inactive) | > 100 µM (inactive) | > 100 µM (inactive) | > 100 µM (inactive) | > 100 µM (inactive) | > 100 µM (inactive) | > 100 µM (inactive) | > 100 µM (inactive) | 52.2 µM (inactive) | > 100 µM (inactive) | 66.5 µM (inactive) | 39.4 µM (inactive) | 83.2 µM (inactive) | 53.3 µM (inactive) | 44.7 µM (inactive) | > 100 µM (inactive) |
| COc1cc(OC)c2nc3occc3c(OC)c2c1 | > 100 µM (inactive) | 96.4 µM (inactive) | > 100 µM (inactive) | > 100 µM (inactive) | > 100 µM (inactive) | > 100 µM (inactive) | > 100 µM (inactive) | 61.2 µM (inactive) | 37.1 µM (inactive) | > 100 µM (inactive) | 78 µM (inactive) | > 100 µM (inactive) | > 100 µM (inactive) | 64.7 µM (inactive) | > 100 µM (inactive) | 94.8 µM (inactive) | 99.5 µM (inactive) | 97.5 µM (inactive) | > 100 µM (inactive) |
| O=c1[nH]/c(=C/c2ccc(OCc3ccccc3)cn2)c(=O)[nH]/c1=C/c1ccc(O)cc1 | 51.4 µM (inactive) | 0.612 µM (active) | 1.04 µM (active) | > 37.2 µM (inactive) | 0.94 µM (active) | 1.48 µM (inactive) | 1 µM (active) | 1.76 µM (inactive) | 0.219 µM (active) | 2.56 µM (inactive) | 1.41 µM (inactive) | 1.67 µM (inactive) | 8.32 µM (inactive) | 2.71 µM (inactive) | 1.16 µM (inactive) | 0.298 µM (active) | 0.877 µM (active) | 4.99 µM (inactive) | 1.23 µM (inactive) |
| COC(C)C(O)(C(=O)OCC1=CCN2CCC(O)C12)C(C)(C)O (stereo not drawn) | > 100 µM (inactive) | > 100 µM (inactive) | > 100 µM (inactive) | > 100 µM (inactive) | > 100 µM (inactive) | > 100 µM (inactive) | > 100 µM (inactive) | > 100 µM (inactive) | > 100 µM (inactive) | > 100 µM (inactive) | > 100 µM (inactive) | > 100 µM (inactive) | > 100 µM (inactive) | > 100 µM (inactive) | > 100 µM (inactive) | > 100 µM (inactive) | > 100 µM (inactive) | > 100 µM (inactive) | > 100 µM (inactive) |
| O=C(O)/C=C(/C(=O)O)C12CCN3CC4=CCOC5CC(=O)NC1C5C4CC32 (stereo not drawn) | > 100 µM (inactive) | > 100 µM (inactive) | > 100 µM (inactive) | > 100 µM (inactive) | > 100 µM (inactive) | > 100 µM (inactive) | > 100 µM (inactive) | > 100 µM (inactive) | > 100 µM (inactive) | > 100 µM (inactive) | > 100 µM (inactive) | > 100 µM (inactive) | > 100 µM (inactive) | > 100 µM (inactive) | > 100 µM (inactive) | > 100 µM (inactive) | > 100 µM (inactive) | > 100 µM (inactive) | > 100 µM (inactive) |
| Cn1ccc2c(c1=O)C(=O)OC2(C)C [CERPEGIN] | > 100 µM (inactive) | > 100 µM (inactive) | > 100 µM (inactive) | > 100 µM (inactive) | > 100 µM (inactive) | > 100 µM (inactive) | > 100 µM (inactive) | > 100 µM (inactive) | > 100 µM (inactive) | > 100 µM (inactive) | > 100 µM (inactive) | > 100 µM (inactive) | > 100 µM (inactive) | > 100 µM (inactive) | > 100 µM (inactive) | > 100 µM (inactive) | > 100 µM (inactive) | > 100 µM (inactive) | > 100 µM (inactive) |
